Test [1] relates to MCF7 xenograft. As to the kind of experiment: Electroporation tumour therapy of MCF7 xenografts. Format: in vivo, SCID mice. The procedure: Xeno-grafts. In vivo tests have been carried out using 40 day old SCID female mice (Harlan Laboratories, Milan, IT). At day 0, animals have been totally anesthetized with intramuscular injection of 400 μg/animal (average weight 25 g) of Zoletil (Virbac) containing 0.12% Xylor (Xylazine), and transplanted subcutaneously (s.c.), in intrascapular mouse region with pellet of […] (1.7 mg/sustained release pellet over 60 days, Innovative Research of America, Sarasota, Fla.). On the next day, 5×10^6 proliferating and scr and 1257 peptide previously transfected, as above described, MCF7 or BT474 cells, have been re-suspended in 0.1 ml of Matrigel (BD Biosciences) and subcutaneously inoculated in each mouse. […] Tumour growth has been monitored two times weekly using calibration along two orthogonal axes: length (L) and […]. The tumour volume (V) has been calculated using the formula V=L*(W2)/2. All the procedures relating to animals and treatment thereof have been carried out according institutional guidelines.
Electroporation tumour therapy. […] A dilute solution of 1257 peptide (75 ug) in 15 ul of sterile PBS has been directly injected in each xenograft, which subsequently has been electrode pulsed. PBS diluted scr peptide has been used as control, according to same procedure. As a further control we have analyzed two groups of not peptide injected animals, except that one of two was subjected to electroporation. Therapy has been repeated once weekly, and tumour size monitored up to 70 days.
Tumour size has been measured at regular intervals (alternate days) using a caliber and tumour volume has been calculated as above described. In order to minimize animal pain during the electroporation, tests have been carried out under total anesthesia. All the procedures concerning animals and treatment thereof have been carried out according to institutional guidelines.
In an attempt to use an experimental approach mimicking human therapy, scr or 1257 phosphopeptides has been administered directly into tumour. The administration of the peptide has been carried out by injection and successive electroporation in order to allow the phosphopeptide penetration. This technique facilitating the drug absorption from the tumour is used for human mainly to treat superficial lesions like melanomas, skin tumours or cutaneous metastases, but currently it is also used for carcinomas during pre-operation sessions. The peptide administration has been carried out when the tumour volume was 200 mm^3.

For test [2], the system named is MAPK phosphorylation. As to the kind of experiment: MAPK (ERK1/2) phosphorylation (Western blot) after peptide transfection. It counts as cell-based, human. Particulars: MCF7, BT474 and MDA-MB-453 cells (FIG. 4A); Herceptin where combined. As to the method:
Peptide transfection. In order to inhibit the p85 and ErbB3 interaction, MCF7, BT474 and MDA-MB-453 cell lines have been transfected using 80, 100, and 180 μg, respectively, of the following phosphopeptides:
Treatments and lmmunodecorations. […] Briefly the cells have been plated at 5×10^5 concentration in 60 mm plates. […] At the end of the treatment the cells have been lysed with RIPA buffer [150 mM NaCl, 1% NP-40, 0,5% sodium deoxycholate (DOC), 0.1% SDS, 50 mM TrisHCl (pH 8), 1 mM PMSF, 1 mM EGTA, 50 mM NaF, 50 mM Na3VO4 and protease inhibitors (Roche, Milano, IT)] in order to analyze the expression levels of phosphorylated and total ErbB-3, ErbB-2, ERK and HSP-70 proteins. In order to analyze the levels of Akt phosphorylation and expression, the cells have been lysed in NP-40 buffer [1% NP-40, 10% glycerol, 137 mM NaCl, 20 mM TrisHCl (pH 7.4), 50 mM NaF, 1 mM PMSF, 5 mM Na3VO4, protease inhibitors (Roche, Milano, IT)]. Cell lysates have been incubated on ice for 20 minutes and centrifuged at 14000 rpm for 20 minutes. RIPA buffer obtained cell extracts have been boiled for 5 minutes at 95° C., while NP40 buffer lysed samples have been boiled at 65° C. for 5 minutes. […] After thorough washing, nitrocellulose peroxidase activity has been detected by chemiluminescence (Lite-blot-Euroclone, Milano, IT)
Background: In western blotting, separated proteins are transferred to a membrane and probed.

In test [3] the target is T1, p85 and p110a (PI3K catalytic sub-unit) interaction (Homo sapiens, UniProt P27986).
T1 construct: Whole cell lysates have been imunoprecipitated with anti-p85 antibody; endogenous in cells; host or cells: MCF7, BT474, MDA-MB-453
As to the kind of experiment: Immunoprecipitation with anti-p85, blot anti-p110α, in transfected cells. Particulars: transfected cells (FIG. 2D). Format: cell-based. As to the method:
Immunoprecipitation. MCF7, BT474 and MDA-MB-453 cell lines have been plated at 5×10^5 concentration in 60 mm plates. On subsequent day cells have been transfected with 1257 phosphopeptide and contrrol phosphopeptide. After 40 hours the cells have been washed two times with cold PBS and extracted with lysis buffer [(50 mM Tris HCl (pH 7.4), 250 mM NaCl, 0.1% Triton X-100, 5 mM EDTA, 50 mM NaF, 1 mM PMSF, 5 mM Na3VO4 e 50 mmol/L protease inhibitors (Roche, Milan, IT)]. Whole cell lysates have been imunoprecipitated with anti-p85 antibody (#06-496) in the presence of protein G (Pierce, Milan, IT). Whole proteins and immunocomplexes then have been subjected to 8% SDS-PAGE and transferred on nitrocellulose filter. The proteins have been detected by immunodecoration using anti-ErbB3 and anti-p110α antibodies.
The peptide has been transfected using Lipofectamine in all three cell lines. […] This binding is required in order PI3K kinase to be activated.

The subject of test [4] is MCF7 cells. The experiment in a line: Soft agar anchorage-independent growth. It counts as cell-based, human. The note with it: compared to parental or scr peptide transfected cells. The procedure:
(§1) Soft agar. […] Briefly cells (1×10^4) have been re-suspended in 5 ml of 0.3% agar in RPMI or DMEM supplemented with 10% FCS, and quickly stained on a solid layer of 1.2% agar in DMEM/RPMI. Cultures have been carried out for 4 weeks. Then colonies have been stained with viable colony specific neutral red solution (Sigma, Milan, IT), and then counted. Photographies have been taken using Leica DM IRE2 microscope and Leica FW4000 software (Leica Microsystems, Milan, IT).
(§2) Then it has been attempted to understand whether the peptide is suitable to reduce the cell ability to grow under anchorage-independence conditions.

For test [5], the system named is BT474 cells. As to the kind of experiment: Soft agar anchorage-independent growth. It counts as cell-based, human. The note with it: compared to parental or scr peptide transfected cells. The procedure: as §1, §2
Setting [6] is: intra-tumour injection + electroporation once weekly, MCF7.

Non-standard residues stand in square brackets, D forms with d. No end group written: not given here. pY = N[C@@H](Cc1ccc(OP(=O)(O)O)cc1)C(=O)O

T1 sequence (P27986 whole entry): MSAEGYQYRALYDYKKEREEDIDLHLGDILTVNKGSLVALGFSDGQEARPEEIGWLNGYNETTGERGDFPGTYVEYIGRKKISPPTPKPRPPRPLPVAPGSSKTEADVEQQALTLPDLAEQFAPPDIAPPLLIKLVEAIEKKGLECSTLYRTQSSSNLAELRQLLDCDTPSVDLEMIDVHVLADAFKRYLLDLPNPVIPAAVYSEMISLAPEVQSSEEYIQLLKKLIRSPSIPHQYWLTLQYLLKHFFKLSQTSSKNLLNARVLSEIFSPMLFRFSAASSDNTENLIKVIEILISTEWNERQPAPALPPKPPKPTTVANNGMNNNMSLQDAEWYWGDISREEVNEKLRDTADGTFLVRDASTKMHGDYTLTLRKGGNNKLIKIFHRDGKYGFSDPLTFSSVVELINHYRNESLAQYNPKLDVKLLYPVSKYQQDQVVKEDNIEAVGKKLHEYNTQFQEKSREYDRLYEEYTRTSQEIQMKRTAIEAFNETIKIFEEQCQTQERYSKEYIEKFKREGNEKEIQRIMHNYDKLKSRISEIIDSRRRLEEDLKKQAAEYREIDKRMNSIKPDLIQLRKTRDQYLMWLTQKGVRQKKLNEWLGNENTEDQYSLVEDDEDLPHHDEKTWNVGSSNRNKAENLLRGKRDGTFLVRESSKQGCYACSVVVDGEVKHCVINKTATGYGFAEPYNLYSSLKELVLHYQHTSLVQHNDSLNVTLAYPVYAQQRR

On to “RDGGGPGGDpYAAMGACPA (RDGGGPGGD[pY]AAMGACPA; listed as Homo sapiens) [1257 phosphopeptide]”, for which the “apoptosis in tumours (TUNNEL assay)” value in test [1] (immunohistochemistry of electroporation treated tumours (FIG. 9A)) is reported as “go in apoptosis”. Also, the “proliferation in tumours (Ki67 assay)” value in test [1] (immunohistochemistry of electroporation treated tumours (FIG. 9B)) is “low proliferating index”. Besides, in test [1] (setting [6]), the “inhibition of tumour growth compared to control not treated tumours” value is 58% and the “inhibition of tumour growth compared to scr peptide inoculated tumours” value turned out to be 50%. Besides, the MAPK phosphorylation entry in test [2] is on record as “inhibition of MAPK phosphorylation”. Besides, the “inhibition of p85 and p110a interaction” value in test [3] is recorded as “inhibits p85 from interacting with p110a”. Besides, the “reduction of colony number” value in test [4] was “up to 80%”. In addition, in test [5], the “reduction of colony number” value is given as “up to 80%”.

Source of the values: patent publication US20130259929A1, “USE OF A PHOSPHOPEPTIDE ABLE TO BLOCK HER3/P85 INTERACTION FOR THE TREATMENT OF HER2 HYPER-EXPRESSING TUMOURS” (priority 2010, published 2013).
